From the supplement of paper PMC8617591

Experiments:
[1] = tested on: Mycobacterium tuberculosis Erdman (autoluminescent); assay: AUC25, normalised area under dose response up to IC25 (fraction (0-1)); higher = more potent at low dose
Description: (§1)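 DiaMOND dose responses (10 doses, 1.5- or 2-fold spacing, equipotent around IC90) of autoluminescent M. tuberculosis Erdman in 8 in vitro models. Read-out is OD600, or luminescence for the intracellular (J774) and dormancy models, background-subtracted and normalised to untreated wells. A 3-parameter Hill fit gives Einf and AUC25 (area to IC25 normalised by IC25); GRinf comes from a Hill fit of the Hafner normalised growth rate. Biological replicates passing QC are averaged. Single drugs only.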

[2] = tested on: Mycobacterium tuberculosis Erdman (autoluminescent); assay: GRinf, maximum normalised growth rate inhibition (unitless (-1 to 1)); higher = less effect (negative = killing)
Description: as §1

[3] = tested on: Mycobacterium tuberculosis Erdman (autoluminescent); assay: Einf, fitted maximum growth inhibition (fraction); higher = stronger maximal inhibition
Description: as §1

[4] = tested on: Mycobacterium tuberculosis Erdman (autoluminescent); assay: Einf, fitted maximum growth inhibition of combination (fraction); higher = stronger maximal inhibition
Description: (§2)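 DiaMOND equipotent two-drug combination dose responses against autoluminescent M. tuberculosis Erdman in 8 in vitro models. Read-out is OD600, or luminescence for the intracellular and dormancy models, normalised to untreated wells. Hill-fit Einf, AUC25 and GRinf are potency metrics; FIC50 and FIC90 are Loewe-additivity fractional inhibitory concentrations, given as log2 (negative = synergy). Replicates are averaged.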

[5] = tested on: Mycobacterium tuberculosis Erdman (autoluminescent); assay: FIC50 (Loewe) at 50% inhibition (log2); higher = more antagonistic
Description: as §2

[6] = tested on: Mycobacterium tuberculosis Erdman (autoluminescent); assay: AUC25, normalised area under dose response up to IC25 (fraction (0-1)); higher = more potent at low dose; remark: listed apart in the source
Description: as §2

[7] = tested on: Mycobacterium tuberculosis Erdman (autoluminescent); assay: GRinf, maximum normalised growth rate inhibition (unitless (-1 to 1)); higher = less effect (negative = killing); remark: listed apart in the source
Description: as §2

[8] = tested on: Mycobacterium tuberculosis Erdman (autoluminescent); assay: FIC90 (Loewe) at 90% inhibition (log2); higher = more antagonistic
Description: as §2

CO[C@H]1/C=C/O[C@@]2(C)Oc3c(C)c(O)c4c(O)c(c(/C=N/N5CCN(C)CC5)c(O)c4c3C2=O)NC(=O)/C(C)=C\C=C\[C@H](C)[C@H](O)[C@@H](C)[C@@H](O)[C@@H](C)[C@H](OC(C)=O)[C@@H]1C [rifampicin]
Details | AUC25, [1] | Einf, [3] | GRinf, [2]
in vitro model: acidic pH 5.7, time point: constant (~7 days, model-specific) | 0.0889 | 0.838 | -0.0959
in vitro model: acidic pH 5.7, time point: terminal (~4-5 doublings, model-specific) | 0.0838 | 0.98 | -0.261
in vitro model: intracellular J774, time point: constant = terminal | – | 0.971 | -0.261

Details | AUC25, [1] | Einf, [3] | GRinf, [2]
in vitro model: butyrate, time point: constant (~7 days, model-specific) | 0.112 | 0.892 | 0.0824
in vitro model: butyrate, time point: terminal (~4-5 doublings, model-specific) | 0.1 | 0.956 | 0.0686
in vitro model: cholesterol 0.05 mM, time point: constant (~7 days, model-specific) | 0.093 | 0.503 | 0.296
in vitro model: cholesterol 0.05 mM, time point: terminal (~4-5 doublings, model-specific) | 0.0796 | 0.855 | -0.0493
in vitro model: cholesterol-high 0.2 mM, time point: constant (~7 days, model-specific) | 0.0905 | 0.927 | -0.416
in vitro model: cholesterol-high 0.2 mM, time point: terminal (~4-5 doublings, model-specific) | 0.0772 | 0.999 | -0.773
in vitro model: dormancy (butyrate + nitrate, low O2), time point: constant (~7 days, model-specific) | 0.0684 | 0.901 | 0.176
in vitro model: dormancy (butyrate + nitrate, low O2), time point: terminal (~4-5 doublings, model-specific) | 0.0437 | 0.978 | -0.0601
in vitro model: standard 7H9 glycerol, time point: constant = terminal | 0.0814 | 0.877 | 0.161
in vitro model: valerate, time point: constant (~7 days, model-specific) | 0.0576 | 0.86 | 0.0731
in vitro model: valerate, time point: terminal (~4-5 doublings, model-specific) | 0.0385 | 0.943 | 0.0202

CO[C@H]1/C=C/O[C@@]2(C)Oc3c(C)c(O)c4c(O)c(c(/C=N/N5CCN(C6CCCC6)CC5)c(O)c4c3C2=O)NC(=O)/C(C)=C\C=C\[C@H](C)[C@H](O)[C@@H](C)[C@@H](O)[C@@H](C)[C@H](OC(C)=O)[C@@H]1C [rifapentine]
Details | AUC25, [1] | Einf, [3] | GRinf, [2]
in vitro model: acidic pH 5.7, time point: constant (~7 days, model-specific) | 0.0584 | 0.831 | -0.0781
in vitro model: acidic pH 5.7, time point: terminal (~4-5 doublings, model-specific) | 0.0625 | 0.974 | -0.181
in vitro model: intracellular J774, time point: constant = terminal | – | 0.973 | -0.197

Details | AUC25, [1] | Einf, [3] | GRinf, [2]
in vitro model: butyrate, time point: constant (~7 days, model-specific) | 0.0929 | 0.891 | 0.117
in vitro model: butyrate, time point: terminal (~4-5 doublings, model-specific) | 0.0749 | 0.942 | 0.0762
in vitro model: cholesterol 0.05 mM, time point: constant (~7 days, model-specific) | 0.104 | 0.553 | 0.164
in vitro model: cholesterol 0.05 mM, time point: terminal (~4-5 doublings, model-specific) | 0.065 | 0.861 | -0.00856
in vitro model: cholesterol-high 0.2 mM, time point: constant (~7 days, model-specific) | 0.0607 | 0.877 | -0.186
in vitro model: cholesterol-high 0.2 mM, time point: terminal (~4-5 doublings, model-specific) | 0.053 | 1 | -0.735
in vitro model: dormancy (butyrate + nitrate, low O2), time point: constant (~7 days, model-specific) | 0.0644 | 0.908 | 0.218
in vitro model: dormancy (butyrate + nitrate, low O2), time point: terminal (~4-5 doublings, model-specific) | 0.0566 | 0.989 | -0.11
in vitro model: standard 7H9 glycerol, time point: constant = terminal | 0.0489 | 0.894 | 0.0516
in vitro model: valerate, time point: constant (~7 days, model-specific) | 0.0524 | 0.855 | 0.056
in vitro model: valerate, time point: terminal (~4-5 doublings, model-specific) | 0.0266 | 0.937 | 0.0374

CO[C@H]1/C=C/O[C@@]2(C)Oc3c(C)c(O)c4c(O)c(c(/C=N/N5CCN(C6CCCC6)CC5)c(O)c4c3C2=O)NC(=O)/C(C)=C\C=C\[C@H](C)[C@H](O)[C@@H](C)[C@@H](O)[C@@H](C)[C@H](OC(C)=O)[C@@H]1C [rifapentine] + CO[C@H]1/C=C/O[C@@]2(C)Oc3c(C)c(O)c4c(O)c(c(/C=N/N5CCN(C)CC5)c(O)c4c3C2=O)NC(=O)/C(C)=C\C=C\[C@H](C)[C@H](O)[C@@H](C)[C@@H](O)[C@@H](C)[C@H](OC(C)=O)[C@@H]1C [rifampicin]
Details | AUC25, [6] | Einf, [4] | FIC50, [5] | FIC90, [8] | GRinf, [7]
in vitro model: acidic pH 5.7, time point: constant (~7 days, model-specific) | 0.0835 | 0.837 | 0.179 | – | -0.028
in vitro model: acidic pH 5.7, time point: terminal (~4-5 doublings, model-specific) | 0.0696 | 0.967 | 0.0519 | -0.186 | -0.182
in vitro model: intracellular J774, time point: constant = terminal | – | 0.934 | – | -0.3 | -0.195

Details | AUC25, [6] | Einf, [4] | FIC50, [5] | FIC90, [8] | GRinf, [7]
in vitro model: butyrate, time point: constant (~7 days, model-specific) | 0.101 | 0.887 | 0.0385 | – | 0.0983
in vitro model: butyrate, time point: terminal (~4-5 doublings, model-specific) | 0.0929 | 0.958 | -0.077 | 0.00202 | 0.0599
in vitro model: cholesterol 0.05 mM, time point: constant (~7 days, model-specific) | 0.125 | 0.57 | -0.0632 | – | 0.181
in vitro model: cholesterol 0.05 mM, time point: terminal (~4-5 doublings, model-specific) | 0.085 | 0.883 | -0.246 | 0.16 | -0.0494
in vitro model: cholesterol-high 0.2 mM, time point: constant (~7 days, model-specific) | 0.0915 | 0.921 | -0.073 | 0.413 | -0.231
in vitro model: cholesterol-high 0.2 mM, time point: terminal (~4-5 doublings, model-specific) | 0.0669 | 0.999 | 0.0935 | -0.0799 | -0.64
in vitro model: dormancy (butyrate + nitrate, low O2), time point: constant (~7 days, model-specific) | 0.062 | 0.902 | 0.0837 | -0.356 | 0.162
in vitro model: dormancy (butyrate + nitrate, low O2), time point: terminal (~4-5 doublings, model-specific) | 0.0354 | 0.979 | 0.0345 | -0.0772 | -0.0822
in vitro model: standard 7H9 glycerol, time point: constant = terminal | 0.0721 | 0.907 | 0.198 | 0.54 | 0.101
in vitro model: valerate, time point: constant (~7 days, model-specific) | 0.0488 | 0.815 | 0.231 | – | 0.136
in vitro model: valerate, time point: terminal (~4-5 doublings, model-specific) | 0.0288 | 0.921 | -0.0221 | -0.019 | 0.0885
